Structures can show the parent of a compound that is named as a salt. Where two headings read alike, the source gives them in different places.
Tested on: PRKACA-PRKAR2A interaction (SmBiT-PRKACA / LgBiT-PRKAR2A), protein kinase A
Set-up: NanoLuc complementation counter-screen in cell extract, PRKACA with PRKAR2A, loss of luminescence, detects NanoLuc interference
Conditions: 0.5 h, 20 µM, inhibitor
[1] = counter-screen for NanoLuc interference
[2] = counter-screen for NanoLuc interference, Inh (PKA)

Compound | Inh (PKA) [1] | further results
Cc1ccc(C(=O)Nc2ccc(CN3CCN(C)CC3)c(C(F)(F)F)c2)cc1C#Cc1cnc2[nH]ncc2c1 [UM0142238:01, GZD824] | 15.4% | –
N#Cc1cc(-c2n[nH]c(-c3ccncc3)n2)ccn1 [UM0142184:01, Topiroxostat] | 3.047% | –
CN(C/C=C/C#CC(C)(C)C)Cc1cccc2ccccc12 [UM0133235:02, Terbinafine HCl] | 7.743% | –
CCN1CCN(Cc2ccc(Nc3ncc(F)c(-c4cc(F)c5nc(C)n(C(C)C)c5c4)n3)nc2)CC1 [UM0141414:01, LY2835219] | 8.649% | –
CCNC(=O)c1noc(-c2cc(C(C)C)c(O)cc2O)c1-c1ccc(CN2CCOCC2)cc1 [UM0141684:01, AUY922 (NVP-AUY922)] | 15.87% | –
CC[C@@]1(O)C(=O)OCc2c1cc1n(c2=O)Cc2cc3ccccc3nc2-1 [UM0133648:02, Camptothecin] | 1.997% | –
Cc1nnc(SCC2=C(C(=O)O)N3C(=O)[C@@H](NC(=O)Cn4cnnn4)[C@H]3SC2)s1 [UM0133624:02, Cefazolin (sodium salt)] | 0.1508% | –
CN/C(=N\CCSCc1nc[nH]c1C)NC#N [UM0142305:01, Cimetidine] | 1.548% | –
Oc1c(Cl)cc(Cl)c(Cl)c1Cc1c(O)c(Cl)cc(Cl)c1Cl [UM0121388:04, Hexachlorophene] | 52.78% | –
COc1cc2c(Nc3ccc(NC(=O)c4ccccc4)cc3)ncnc2cc1OCCCN1CCOCC1 [UM0141710:01, ZM 447439] | 1.101% | –
CNC(=O)c1ccc2cc([C@@]3(O)CCn4cncc43)ccc2c1 [UM0141785:01, TAK-700 (Orteronel)] | 0.0216% | –
CC(C)CCCCC(=O)N[C@@H](CO)C(=O)N[C@@H](CC(C)C)C(=O)[C@@]1(CO)CO1 [UM0141930:01, Dihydroeponemycin] | 3.421% | –
Cc1ccc(NC(=O)c2cccc(N(C)C)c2)cc1NC(=O)c1ccc(O)cc1 [UM0130998:02, ZM336372] | 21.08% | –
C[C@H]1c2cccc(O)c2C(=O)C2=C(O)[C@]3(O)C(=O)C(C(N)=O)=C(O)[C@@H](N(C)C)[C@@H]3[C@@H](O)[C@@H]21 [UM0142036:01, Doxycycline HCl] | – | Inh (PKA) [2]: 1.035%
Nc1nc(=O)c2nc(CNc3ccc(C(=O)N[C@@H](CCC(=O)O)C(=O)O)cc3)cnc2[nH]1 [UM0132892:02, Folic acid] | 2.052% | –
NCC(=O)Nc1ccc(-n2nc(C(F)(F)F)cc2-c2ccc3c(ccc4ccccc43)c2)cc1 [UM0141487:01, OSU-03012 (AR-12)] | 5.116% | –
O=C(Nc1ccc2[nH]nc(-c3ccncc3)c2c1)[C@@H]1CCN(CC(=O)N2CCN(c3ccc(-c4ncccn4)cc3)CC2)C1 [UM0142677:01, SCH772984 HCl] | – | Inh (PKA) [2]: 18.36%
O=c1cc(-c2ccc(O)cc2)oc2cc(O)cc(O)c12 [UM0133861:02, Apigenin] | 24.67% | –
FC(F)(F)Oc1ccc2nc(-c3ccc(OCCOCCOc4ccc(-c5nc6ccc(OC(F)(F)F)cc6[nH]5)nc4)cn3)[nH]c2c1 [UM0142119:01, AI-10-49] | 39.19% | –
CC(C)Oc1ccc(-c2nc(-c3cccc4c3CC[C@@H]4NCCO)no2)cc1C#N [UM0142722:01, Ozanimod (RPC1063)] | 8.033% | –

Compound | Inh (PKA) [1] | further results
CN(C)c1ccc(O)c2c1C[C@H]1C[C@H]3[C@H](N(C)C)C(O)=C(C(N)=O)C(=O)[C@@]3(O)C(O)=C1C2=O [UM0142369:01, Minocycline HCl] | 5.155% | –
CO[C@H]1C[C@@H]2CC[C@@H](C)[C@@](O)(O2)C(=O)C(=O)N2CCCC[C@H]2C(=O)O[C@H]([C@H](C)C[C@@H]2CC[C@@H](OCCO)[C@H](OC)C2)CC(=O)[C@H](C)/C=C(\C)[C@@H](O)[C@@H](OC)C(=O)[C@H](C)C[C@H](C)/C=C/C=C/C=C/1C [UM0141927:01, Everolimus (RAD001)] | 0.7572% | –
Cc1cc(N2CCN([C@@H]3CN[C@H](C(=O)N4CCSC4)C3)CC2)n(-c2ccccc2)n1 [UM0141637:01, Teneligliptin hydrobromide] | – | Inh (PKA): -1.766%
Cc1cc(SCc2sc(-c3ccc(C(F)(F)F)c(F)c3)nc2C)ccc1OCC(=O)O [UM0141775:01, GW0742] | 20.87% | –
CN1CCN(C2CCN(C(=O)Nc3cc(Oc4ccc(NC(=O)C5(C(=O)Nc6ccc(F)cc6)CC5)c(F)c4)ccn3)CC2)CC1 [UM0142258:01, Golvatinib (E7050)] | 5.292% | –
Cc1nc2n(c(=O)c1CCN1CCC(c3noc4cc(F)ccc34)CC1)CCCC2 [UM0134126:02, Risperidone] | 4.965% | –
N=C1NC(=O)/C(=C/c2ccc(O)cc2)S1 [UM0142634:01, Mirin] | 13.24% | –
CC(=O)N[C@@H](CS)C(=O)O [UM0119535:03, Acetylcysteine] | 1.097% | –
O=C1c2c(O)cc(O)cc2O[C@H](c2cc(O)c(O)c(O)c2)[C@H]1O [UM0142858:01, Dihydromyricetin] | 4.571% | –
COc1cc(OC)c(NC(=O)Nc2cc(C)on2)cc1Cl [UM0142328:01, PNU-120596] | 15.14% | –
CNc1nc(-c2ccc3c(N)n[nH]c3c2)cc(N2C[C@@H](C(=O)NC3CCCCC3)CC[C@H]2C)n1 [UM0142430:01, GSK2334470] | 2.681% | –
Cn1cc(-c2ccc3nnc(C(F)(F)c4ccc5ncccc5c4)n3n2)cn1 [UM0141869:01, JNJ-38877605] | 8.714% | –
Cc1ccc(NC(=O)c2ccc(CN3CCN(C)CC3)cc2)cc1Nc1nc(-c2cccnc2)cs1 [UM0127954:03, Masitinib (AB1010)] | 15.54% | –
C[C@H](Cn1cnc2c(N)ncnc21)OCP(=O)(O)O [UM0141875:01, Tenofovir] | -0.0985% | –
O=C(N/N=C/c1ccc(O)c(O)c1)c1cc2ccccc2cc1O [UM0141404:01, Dynasore] | 24% | –
O=C1c2ccc(Nc3ccc(F)cc3F)cc2CCc2ccc(OC[C@H](O)CO)cc21 [UM0141631:01, Skepinone-L] | 17.25% | –
CN(c1ccccc1CNc1nc(Nc2ccc3c(c2)CC(=O)N3)ncc1C(F)(F)F)S(C)(=O)=O [UM0142118:01, PF-431396] | 63.93% | –
COc1cc2ncnc(Nc3cccc(Br)c3)c2cc1OC [UM0141943:01, PD153035 hydrochloride] | 18.98% | –
O=C(Cc1ccccc1)Nc1nnc(CCSCCc2nnc(NC(=O)Cc3ccccc3)s2)s1 [UM0142712:01, BPTES] | 8.754% | –
COc1cc2c(NC3CCN(C)CC3)nc(N3CCCN(C)CC3)nc2cc1OCCCN(C)C [UM0141847:01, UNC 0224] | 3.563% | –

Compound | Inh (PKA) [1] | further results
Clc1ccc(Nc2nnc(Cc3ccncc3)c3ccccc23)cc1 [UM0127963:03, Vatalanib] | – | Inh (PKA) [2]: 29.07%
N[C@@H]1CCCN(c2c(/C=C3\SC(=O)NC3=O)cccc2-c2ccccc2)C1 [UM0141655:01, AZD1208] | 21.79% | –
CC(C)(C)C(=O)Oc1ccc(S(=O)(=O)Nc2ccccc2C(=O)NCC(=O)O)cc1 [UM0142761:01, Sivelestat (ONO-5046)] | -0.1491% | –
CN(C)Cc1c(C(=O)NCCOc2ccc(C(=O)NO)cc2)oc2ccccc12 [UM0141704:01, PCI-24781 (CRA-024781)] | 0.8331% | –
Cn1ncnc1[C@H]1c2n[nH]c(=O)c3cc(F)cc(c23)N[C@@H]1c1ccc(F)cc1 [UM0141735:01, BMN 673] | 5.771% | –
O=C1NCCc2[nH]c(-c3ccncc3)cc21 [UM0141605:01, PHA-767491] | 1.427% | –
Nc1ccccc1NC(=O)c1ccc(CNc2nccc(-c3cccnc3)n2)cc1 [UM0141696:01, Mocetinostat (MGCD0103, MG0103)] | 5.263% | –
CCc1nc(N)nc(N)c1-c1ccc(Cl)cc1 [UM0118442:03, Pyrimethamine] | 0.5127% | –
Nc1nc(CC(=O)Nc2ccc(CCNC[C@H](O)c3ccccc3)cc2)cs1 [UM0142057:01, Mirabegron (YM178)] | 3.158% | –
N=C(N)NC(=N)NCCc1ccccc1 [UM0142225:01, Phenformin HCl] | 1.045% | –
COc1c2occc2cc2ccc(=O)oc12 [UM0134068:02, 8-Methoxypsoralen] | 2.167% | –
CC1(C)CC(=O)c2c(C(F)(F)F)nn(-c3ccc(C(N)=O)c(N[C@H]4CC[C@H](OC(=O)CN)CC4)c3)c2C1 [UM0141688:01, PF-04929113 (SNX-5422)] | 8.876% | –
Cc1ccc(NC(=O)c2ccc(CN3CCN(C)CC3)cc2)cc1Nc1nccc(-c2cccnc2)n1 [UM0127952:03, Imatinib (STI571)] | – | Inh (PKA) [2]: 7.189%
CN1CCN(c2ccc3nc(-c4c(N)c5c(F)cccc5[nH]c4=O)[nH]c3c2)CC1 [UM0142698:01, Dovitinib (TKI258) Lactate] | – | Inh (PKA) [2]: 21.22%
Cc1ccc(C(=O)N(CCCN)[C@@H](c2nc3cc(Cl)ccc3c(=O)n2Cc2ccccc2)C(C)C)cc1 [UM0141883:01, Ispinesib (SB-715992)] | 12.18% | –
C[C@H]1COC2=C1C(=O)C(=O)c1c2ccc2c1CCCC2(C)C [UM0134017:02, Cryptotanshinone] | 20.28% | –
O=C(c1ccc(F)c(F)c1Nc1ccc(I)cc1F)N1CC(O)([C@@H]2CCCCN2)C1 [UM0141533:01, Cobimetinib] | 6.124% | –
Nc1ccccc1NC(=O)CCCCCCC(=O)Nc1ccccc1 [UM0142867:01, BML-210(CAY10433)] | 8.004% | –

Source: paper PMC9995496, “A screen for MeCP2-TBL1 interaction inhibitors using a luminescence-based assay” (Scientific Reports, 2023)
